The record followed here is patent publication US7115624B1, “Method of inhibiting protein tyrosine phosphatase 1B and/or T-cell protein tyrosine phosphatase 4 and/or other PTPases with an Asp residue at position 48” (Novo Nordisk A/S, priority 1999, dated 2006).

One data set has as its target T1, PTPα (Homo sapiens, UniProt P18433).
T1 construct: PTPα D1
Nature of the data set: PTPase inhibition, p-nitrophenyl phosphate substrate, Ki. The class given is biochemical.

The target in another data set is SHP-1 (Homo sapiens, UniProt P29350). Put plainly: biochemical.
The target in a further data set is T2, PTPε (Homo sapiens, UniProt P23469).
T2 construct: PTPε D1
Put plainly: PTPase inhibition, p-nitrophenyl phosphate substrate, Ki. The class given is biochemical.

In another data set the target is PTPβ (Homo sapiens, UniProt P23467). The description is as above. Type of data set: biochemical.
In a further data set the target is T3, CD45 (Homo sapiens, UniProt P08575).
T3 sequence (P08575 599-1306 limits assumed): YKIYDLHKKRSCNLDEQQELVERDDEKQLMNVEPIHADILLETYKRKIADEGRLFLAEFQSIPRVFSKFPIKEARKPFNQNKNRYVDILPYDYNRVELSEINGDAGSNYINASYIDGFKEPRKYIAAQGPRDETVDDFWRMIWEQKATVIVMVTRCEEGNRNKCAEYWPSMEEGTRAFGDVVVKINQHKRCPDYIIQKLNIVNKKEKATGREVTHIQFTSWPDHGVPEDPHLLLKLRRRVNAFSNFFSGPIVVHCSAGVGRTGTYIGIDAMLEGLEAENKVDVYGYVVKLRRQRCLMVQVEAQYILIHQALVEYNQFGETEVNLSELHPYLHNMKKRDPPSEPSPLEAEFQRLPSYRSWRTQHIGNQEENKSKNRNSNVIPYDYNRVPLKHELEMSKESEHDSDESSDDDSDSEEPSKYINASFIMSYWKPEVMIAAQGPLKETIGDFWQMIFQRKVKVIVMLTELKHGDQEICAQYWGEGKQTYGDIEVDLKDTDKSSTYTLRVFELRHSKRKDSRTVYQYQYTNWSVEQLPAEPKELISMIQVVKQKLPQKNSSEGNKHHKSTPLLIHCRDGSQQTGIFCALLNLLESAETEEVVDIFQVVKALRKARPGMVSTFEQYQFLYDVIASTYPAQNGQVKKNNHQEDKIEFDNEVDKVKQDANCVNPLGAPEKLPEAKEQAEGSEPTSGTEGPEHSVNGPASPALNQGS
Described as above. The conditions noted are these: read-out: Ki values, CD45 D1D2. Type of data set: biochemical.

The target in another data set is T4, LAR (Homo sapiens, UniProt P10586).
T4 sequence (P10586 1285-1907 limits assumed): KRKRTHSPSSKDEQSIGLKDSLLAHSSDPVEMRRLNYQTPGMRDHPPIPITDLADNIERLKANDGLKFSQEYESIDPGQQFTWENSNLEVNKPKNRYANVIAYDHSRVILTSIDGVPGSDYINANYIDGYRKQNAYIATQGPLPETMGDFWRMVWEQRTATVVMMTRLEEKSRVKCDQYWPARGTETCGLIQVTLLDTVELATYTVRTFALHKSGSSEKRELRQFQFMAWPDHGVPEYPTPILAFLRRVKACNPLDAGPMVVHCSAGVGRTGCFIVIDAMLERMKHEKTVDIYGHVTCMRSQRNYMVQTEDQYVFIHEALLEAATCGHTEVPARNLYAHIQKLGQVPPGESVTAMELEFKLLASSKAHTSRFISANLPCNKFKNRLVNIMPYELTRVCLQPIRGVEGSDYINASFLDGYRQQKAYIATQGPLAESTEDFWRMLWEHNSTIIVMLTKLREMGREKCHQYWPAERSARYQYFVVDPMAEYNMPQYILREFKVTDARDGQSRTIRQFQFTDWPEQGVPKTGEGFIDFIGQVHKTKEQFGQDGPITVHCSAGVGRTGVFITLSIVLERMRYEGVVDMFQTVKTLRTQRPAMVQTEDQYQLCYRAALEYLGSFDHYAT
Described as above. Conditions: pH 5.5; D1D2; read-out: Ki values, LAR D1D2. Type of data set: biochemical.

For a further data set, the target named is T5, PTP1B (Homo sapiens, UniProt P18031).
T5 sequence (P18031 1-321): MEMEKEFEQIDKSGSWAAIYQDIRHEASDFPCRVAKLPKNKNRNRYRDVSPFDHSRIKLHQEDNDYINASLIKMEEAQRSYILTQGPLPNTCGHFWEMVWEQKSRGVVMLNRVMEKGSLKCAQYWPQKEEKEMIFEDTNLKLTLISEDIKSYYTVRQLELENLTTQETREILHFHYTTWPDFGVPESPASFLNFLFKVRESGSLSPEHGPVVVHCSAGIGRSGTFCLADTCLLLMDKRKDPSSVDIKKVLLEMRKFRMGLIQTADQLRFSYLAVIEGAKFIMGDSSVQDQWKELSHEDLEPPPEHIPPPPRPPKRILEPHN
Described as above. The class given is biochemical.

The nature of data set [1]: pKa of the tetrahydropyridine ring. The class given is physicochemical. The conditions noted are these: positively charged tetrahydropyridine ring.
[2] abbreviates: pH 5.5, D1, read-out: Ki values, PTPα D1.
Setting [3] is: pH 5.5, D1, read-out: Ki values, PTPε D1.
[4] abbreviates: pH 5.5, read-out: Ki values, PTPβ.
Where [5] appears, read: pH 5.5, read-out: Ki values, PTP1B.
Where [6] appears, read: pH 7, D1 (Table 3), read-out: Ki values, PTPα D1.
The mark [7] stands for this setting: pH 7, D1 (Table 3), read-out: Ki values, PTPε D1.
Setting [8] is: pH 7 (Table 3), read-out: Ki values, PTPβ.
Setting [9] is: pH 7 (Table 6), read-out: Ki, PTP1B residue 48 Asp.
The mark [10] stands for this setting: pH 7 (Table 6), read-out: Ki, PTP α residue 48 Asn.
[11] abbreviates: pH 7 (Table 6), read-out: Ki, PTP ε residue 48 Asn.
Setting [12] is: pH 7 (Table 6), read-out: Ki, PTP β residue 48 Asn.

Where two headings read alike, the source gives them in different places.

T1 sequence (P18433 241-501 limits assumed): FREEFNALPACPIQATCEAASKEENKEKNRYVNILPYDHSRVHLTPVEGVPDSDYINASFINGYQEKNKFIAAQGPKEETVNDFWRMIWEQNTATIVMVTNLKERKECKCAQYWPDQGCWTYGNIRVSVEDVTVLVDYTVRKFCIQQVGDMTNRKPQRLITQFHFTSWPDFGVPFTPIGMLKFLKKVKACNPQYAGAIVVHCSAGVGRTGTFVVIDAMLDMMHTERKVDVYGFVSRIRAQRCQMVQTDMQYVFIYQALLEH
T2 sequence (P23469 135-394 limits assumed): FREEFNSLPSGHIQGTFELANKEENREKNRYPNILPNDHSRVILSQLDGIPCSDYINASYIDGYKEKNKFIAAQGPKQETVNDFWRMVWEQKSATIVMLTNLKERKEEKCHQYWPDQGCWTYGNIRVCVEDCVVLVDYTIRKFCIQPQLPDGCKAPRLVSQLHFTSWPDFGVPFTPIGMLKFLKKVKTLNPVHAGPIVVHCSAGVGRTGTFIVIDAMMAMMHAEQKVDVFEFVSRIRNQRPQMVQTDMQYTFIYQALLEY
Sequence of PTPβ (P23467 1703-1963 limits assumed): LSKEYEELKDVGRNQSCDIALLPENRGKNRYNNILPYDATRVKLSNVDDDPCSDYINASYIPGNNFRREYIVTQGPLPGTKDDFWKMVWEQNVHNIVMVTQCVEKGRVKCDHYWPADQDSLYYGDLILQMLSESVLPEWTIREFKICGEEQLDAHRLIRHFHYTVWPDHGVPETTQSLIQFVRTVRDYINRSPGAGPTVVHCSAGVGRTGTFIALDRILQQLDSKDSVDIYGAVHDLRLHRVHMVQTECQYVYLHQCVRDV
Sequence of SHP-1 (P29350 whole entry): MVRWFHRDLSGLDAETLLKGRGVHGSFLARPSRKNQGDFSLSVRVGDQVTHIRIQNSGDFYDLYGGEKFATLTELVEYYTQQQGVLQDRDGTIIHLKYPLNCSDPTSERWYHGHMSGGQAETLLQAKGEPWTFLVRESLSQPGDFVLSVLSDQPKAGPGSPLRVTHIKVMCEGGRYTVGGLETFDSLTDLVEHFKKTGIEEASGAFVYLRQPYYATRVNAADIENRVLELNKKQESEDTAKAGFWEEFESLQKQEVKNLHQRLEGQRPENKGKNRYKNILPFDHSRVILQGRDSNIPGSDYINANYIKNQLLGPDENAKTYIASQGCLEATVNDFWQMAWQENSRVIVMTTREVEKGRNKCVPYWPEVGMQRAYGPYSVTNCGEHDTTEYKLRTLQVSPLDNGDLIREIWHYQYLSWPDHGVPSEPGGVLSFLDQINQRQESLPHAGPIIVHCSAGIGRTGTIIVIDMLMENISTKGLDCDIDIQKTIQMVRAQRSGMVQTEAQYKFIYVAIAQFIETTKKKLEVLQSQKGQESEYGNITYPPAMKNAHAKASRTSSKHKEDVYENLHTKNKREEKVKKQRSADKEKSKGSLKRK
Description for CD45: (§1) The assay conditions are as follows. Appropriate concentrations of the compounds of the invention (e.g., 0.1 to 100 μM) are added to the reaction mixtures containing different concentrations of the substrate, p-nitrophenyl phosphate (range: 0.16 to 10 mM—final assay concentration). The buffer used was 50 mM HEPES pH 7.0, 100 mM sodium chloride, 0.1% (w/v) bovine serum albumin, 5 mM glutathione, and 1 mM EDTA. The reaction was started by addition of the enzyme and carried out in microtiter plates at 25° C. for 60 minutes. The reactions are stopped by addition of NaOH. […] The data are analyzed using nonlinear regression fit to classical Michaelis Menten enzyme kinetic models. Inhibition is expressed as Ki values in μM.
Description for LAR: The compounds are evaluated for biological activity with a truncated form of PTP1B (corresponding to the first 321 amino acids), which was expressed in E. coli and purified to apparent homogeneity using published procedures well-known to those skilled in the art. The enzyme reactions are carried out using standard conditions essentially as described by Burke et al. (Biochemistry 35; 15989–15996 (1996)) incorporated by reference. […] Appropriate concentrations of the compounds of the invention (e.g., 0.1 to 100 μM) are added to the reaction mixtures containing different concentrations of the substrate, p-nitrophenyl phosphate (range: 0.16 to 10 mM—final assay concentration). The buffer used was 50 mM HEPES pH 7.0, 100 mM sodium chloride, 0.1% (w/v) bovine serum albumin, 5 mM glutathione, and 1 mM EDTA. The reaction was started by addition of the enzyme and carried out in microtiter plates at 25° C. for 60 minutes. The reactions are stopped by addition of NaOH. The enzyme activity was determined by measurement of the absorbance at 405 nm with appropriate corrections for absorbance at 405 nm of the compounds and p-nitrophenyl phosphate. The data are analyzed using nonlinear regression fit to classical Michaelis Menten enzyme kinetic models. Inhibition is expressed as Ki values in μM.
Description for PTP1B: as §1
Description for PTPβ: as §1
Description for PTPε: as §1

On to `O=C(O)C(=O)Nc1sc2c(c1C(=O)O)CCCC2` [Example 2-OBTA], for which the Ki on PTPα (setting [2]) stood at 300 µM; at SHP-1 it was 120 µM; on PTPε (setting [3]), 45 µM; at PTPβ (setting [4]), 14 µM; at CD45 (pH 5.5, D1D2) it was 40 µM; on LAR, 400 µM.

As for `O=C(O)C(=O)Nc1sccc1C(=O)O` [Example 2-OTA, 2-(oxalyl-amino)-thiophene-3-carboxylic acid], the Ki was found to be 62 µM at PTP1B (setting [5]); 1700 µM on PTPα (setting [2]); 60 µM at SHP-1; 590 µM on PTPε (setting [3]); 18 µM at PTPβ (setting [4]); 70 µM on CD45 (pH 5.5, D1D2). Moreover, the inhibitory constant (Ki) on LAR is over 2000 µM.

Consider `O=C(O)C(=O)Nc1sc2c(c1C(=O)O)CCOC2` [Example 2-OTPA, 2-(Oxalyl-amino)-4,7-dihydro-thieno[2,3-c]pyran-3-carboxylic acid], for which the figures for the Ki at PTPα (setting [2]) and on PTPα (setting [6]) were 270 µM and 1100 µM, respectively.

For `O=C(O)C(=O)Nc1sc2c(c1C(=O)O)CCNC2` [Example 2-OTPyA, 2-(Oxalyl-amino)-4,5,6,7-tetrahydro-thieno[2,3-c]pyridine-3-carboxylic acid], the pKa in data set [1] was over 10. Further, the Ki was 0.3 µM on PTP1B (setting [5]); over 2000 µM on PTPα (setting [2]); 900 µM on SHP-1; 600 µM on PTPε (setting [3]); 150 µM on PTPβ (setting [4]); 110 µM at CD45 (pH 5.5, D1D2). The Ki at LAR was over 2000 µM.

Turning to `O=C(O)C(=O)Nc1ccsc1C(=O)O` [Example 3-OTA, 3-(oxalyl-amino)-thiophene-2-carboxylic acid], the Ki was 61 µM at PTP1B (setting [5]); 500 µM at PTPα (setting [2]); over 2000 µM on SHP-1; 350 µM at PTPε (setting [3]); 160 µM at PTPβ (setting [4]); 250 µM at CD45 (pH 5.5, D1D2). In addition, the Ki at LAR was over 2000 µM.

In the case of `O=C(O)C(=O)Nc1sc2c(c1C(=O)O)CC(CN1C(=O)c3cccc(O)c3C1=O)OC2` (centres unmarked) [Example 4, 5-(4-Hydroxy-1,3-dioxo-1,3-dihydro-isoindol-2-ylmethyl)-2-(oxalyl-amino)-4,7-dihydro-5H-thieno[2,3-c]pyran-3-carboxylic acid], the Ki on PTP1B (pH 7 (Table 3), read-out: Ki values, PTP1B) turned out to be 1.9 µM; at PTPα (setting [6]) it was 93 µM; on PTPε (setting [7]), 11 µM; on PTPβ (setting [8]), 1.1 µM; on CD45 (pH 7, D1D2 (Table 3)), 130 µM.

For `COc1ccc2c(c1)C(=O)N(CC1OCCc3c1sc(NC(=O)C(=O)O)c3C(=O)O)C2=O` (centres unmarked) [Example 26, 7-(5-Methoxy-1,3-dioxo-1,3-dihydro-isoindol-2-ylmethyl)-2-(oxalyl-amino)-4,7-dihydro-5H-thieno[2,3-c]pyran-3-carboxylic-acid], the Ki on PTPα (setting [6]) stood at 620 µM; on PTPε (setting [7]) it was 330 µM; on PTPβ (setting [8]), 8.9 µM; on CD45 (pH 7, D1D2 (Table 3)), 380 µM.

On to `CCOC(=O)N1Cc2sc(NC(=O)C(=O)O)c(C(=O)O)c2CC1CN1C(=O)c2ccccc2C1=O` (centres unmarked) [Example 48, 5-(1,3-Dioxo-1,3-dihydro-isoindol-2-ylmethyl)-2-(oxalyl-amino)-4,5,6,7-tetrahydro-thieno[2,3-c]pyridine-3,6-dicarboxylic acid 6-ethyl ester], for which the Ki on PTP1B (setting [9]) came to 0.25 µM; at PTPα (setting [10]), 900 µM; at PTPε (setting [11]), 380 µM; at PTPβ (setting [12]), 47 µM.

As to `O=C(O)C(=O)Nc1sc2c(c1C(=O)O)CC(CN1C(=O)c3ccccc3C1=O)NC2` (centres unmarked) [Example 49, 5-(1,3-Dioxo-1,3-dihydro-isoindol-2-ylmethyl)-2-(oxalyl-amino)-4,5,6,7-tetrahydro-thieno[2,3-c]pyridine-3-carboxylic acid], the Ki worked out at 0.085 µM at PTP1B (setting [9]) and 8.6 µM at PTPβ (setting [12]).

Take `O=C(O)C(=O)Nc1sc2c(c1C(=O)O)C[C@@H](CN1C(=O)c3ccccc3C1=O)NC2` [Example 50, (L)-5-(1,3-Dioxo-1,3-dihydro-isoindol-2-ylmethyl)-2-(oxalyl-amino)-4,5,6,7-tetrahydro-thieno[2,3-c]pyridine-3-carboxylic acid]: the values for the Ki on PTP1B (setting [9]), on PTPα (setting [10]) and on PTPβ (setting [12]) were 0.07 µM, 1000 µM and 8 µM, respectively.

With `O=C(O)C(=O)Nc1sc2c(c1C(=O)O)CC(CN1C(=O)c3cccc(O)c3C1=O)NC2` (centres unmarked) [Example 52, 5-(4-Hydroxy-1,3-dioxo-1,3-dihydro-isoindol-2-ylmethyl)-2-(oxalyl-amino)-4,5,6,7-tetrahydro-thieno[2,3-c]pyridine-3-carboxylic acid], the “fold increase of affinity for PTP1B compared to 2-OTPyA” value on PTP1B is recorded as “about 13 fold”. For the same compound, the Ki on PTP1B (setting [9]) was 1.2 µM; on PTPα (setting [10]) it was over 400 µM; on PTPε (setting [11]), over 500 µM; on PTPβ (setting [12]), 107 µM.

For the compound `O=C(O)C(=O)Nc1ccccc1C(=O)O` [OBA, 2-(oxalyl-amino)-benzoic acid], the Ki was 700 µM at PTPα (setting [2]); 530 µM at SHP-1; 125 µM at PTPε (setting [3]); 32 µM on PTPβ (setting [4]); 160 µM on CD45 (pH 5.5, D1D2); over 2000 µM at LAR.

Usually Ki stands for a measure of affinity in units of concentration, obtained from inhibition or displacement. As a reminder, the pKa is the negative logarithm of the acid dissociation constant. Read a high pKa as a group that holds its proton tightly.
